Source: patent publication US20170334899A1, “AMINO-SUBSTITUTED ISOTHIAZOLES” (Bayer Pharma Aktiengesellschaft, priority 2014, published 2017)
Where “and” joins values, the source holds several entries; their conditions need not be identical. Equal entries are not always repeated.

These molecules were tested against T1, human kinase Mps-1 (Homo sapiens, UniProt P33981) (assay: Mps-1 kinase assay (TR-FRET)). Settings: Mps-1 TR-FRET kinase assay; avg; read-out: Mps1 avg (IC50 [mol/l]).
T1 construct: N-terminally GST-tagged human full length recombinant Mps-1 kinase; GST (N); purchased Invitrogen, Karslruhe, Germany PV4071
T1 sequence (P33981 1-857): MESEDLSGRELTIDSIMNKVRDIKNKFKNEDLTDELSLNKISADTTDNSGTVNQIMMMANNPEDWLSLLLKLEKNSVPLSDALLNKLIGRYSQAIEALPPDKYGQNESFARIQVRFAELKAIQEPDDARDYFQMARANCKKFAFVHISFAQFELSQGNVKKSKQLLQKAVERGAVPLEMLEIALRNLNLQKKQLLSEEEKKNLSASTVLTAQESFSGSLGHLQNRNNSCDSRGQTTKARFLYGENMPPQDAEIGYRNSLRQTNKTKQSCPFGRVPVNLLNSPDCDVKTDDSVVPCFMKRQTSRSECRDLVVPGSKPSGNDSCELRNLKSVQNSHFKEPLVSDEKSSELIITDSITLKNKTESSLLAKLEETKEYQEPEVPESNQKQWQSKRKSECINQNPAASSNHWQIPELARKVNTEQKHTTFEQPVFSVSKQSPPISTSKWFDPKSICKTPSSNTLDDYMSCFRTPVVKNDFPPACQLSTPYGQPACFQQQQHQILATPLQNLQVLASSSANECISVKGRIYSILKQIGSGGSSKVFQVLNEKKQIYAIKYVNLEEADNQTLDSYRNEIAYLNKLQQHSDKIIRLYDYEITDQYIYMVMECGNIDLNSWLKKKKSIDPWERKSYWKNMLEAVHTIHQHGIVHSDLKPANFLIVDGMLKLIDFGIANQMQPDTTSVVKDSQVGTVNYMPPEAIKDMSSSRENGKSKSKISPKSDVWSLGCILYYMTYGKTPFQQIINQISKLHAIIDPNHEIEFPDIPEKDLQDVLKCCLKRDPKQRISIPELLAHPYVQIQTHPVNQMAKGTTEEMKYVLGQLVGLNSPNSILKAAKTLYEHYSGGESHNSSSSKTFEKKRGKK
Format: biochemical
In short: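 GST-tagged full-length recombinant human Mps-1 (~0.5 nM) pre-incubated 15 min with compound, then reacted 60 min at 22 °C with 10 μM ATP and 1 μM biotinylated peptide in Hepes pH 7.7 buffer. EDTA-stopped; TR-FRET (Eu anti-phospho-Ser/Thr to SA-XLent) 665/620 nm ratio normalised to no-inhibitor and no-enzyme controls.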

Compound	IC50
Cc1nsc(Nc2cncc(C(F)(F)F)n2)c1C(=O)Nc1ccc(F)c(OC2CCN(CCF)CC2)c1 [Example 269, N-(4-fluoro-3-{[1-(2-fluoroethyl)piperidin-4-yl]oxy}phenyl)-3-methyl-5-{[6-(trifluoromethyl)pyrazin-2-yl]amino}-1,2-thiazole-4-carboxamide]	> 20 µM
Cc1nsc(Nc2cnc(C(F)(F)F)cn2)c1C(=O)Nc1ccc(C(=O)NC2CN(CC(F)(F)F)C2)cc1 [Example 270, 3-methyl-N-(4-{[1-(2,2,2-trifluoroethyl)azetidin-3-yl]carbamoyl}phenyl)-5-{[5-(trifluoromethyl)pyrazin-2-yl]amino}-1,2-thiazole-4-carboxamide]	> 20 µM
Cc1nsc(Nc2cnc(C(F)(F)F)cn2)c1C(=O)Nc1ccc(C(=O)NC2CN(CC(F)F)C2)cc1 [Example 271, N-(4-{[1-(2,2-difluoroethyl)azetidin-3-yl]carbamoyl}phenyl)-3-methyl-5-{[5-(trifluoromethyl)pyrazin-2-yl]amino}-1,2-thiazole-4-carboxamide]	> 20 µM
Cc1nsc(Nc2cncc(C(F)(F)F)n2)c1C(=O)Nc1ccc(C(=O)N2CCN(CC(F)(F)F)CC2)cc1 [Example 272, 3-methyl-N-(4-{[4-(2,2,2-trifluoroethyl)piperazin-1-yl]carbonyl}phenyl)-5-{[6-(trifluoromethyl)pyrazin-2-yl]amino}-1,2-thiazole-4-carboxamide]	> 20 µM
Cc1nsc(Nc2cncc(C(F)(F)F)n2)c1C(=O)Nc1ccc(C(=O)N2CCN(CC(F)F)CC2)cc1 [Example 273, N-(4-{[4-(2,2-difluoroethyl)piperazin-1-yl]carbonyl}phenyl)-3-methyl-5-{[6-(trifluoromethyl)pyrazin-2-yl]amino}-1,2-thiazole-4-carboxamide]	> 20 µM
Cc1nsc(Nc2cncc(C(F)(F)F)n2)c1C(=O)Nc1ccc(C(=O)N2CCN(CCF)CC2)cc1 [Example 274, N-(4-{[4-(2-fluoroethyl)piperazin-1-yl]carbonyl}phenyl)-3-methyl-5-{[6-(trifluoromethyl)pyrazin-2-yl]amino}-1,2-thiazole-4-carboxamide]	> 20 µM
CCN1CCN(C(=O)c2ccc(NC(=O)c3c(C)nsc3Nc3cncc(C(F)(F)F)n3)cc2)CC1 [Example 275, N-{4-[(4-ethylpiperazin-1-yl)carbonyl]phenyl}-3-methyl-5-{[6-(trifluoromethyl)pyrazin-2-yl]amino}-1,2-thiazole-4-carboxamide]	> 20 µM
Cc1nsc(Nc2cncc(C(F)(F)F)n2)c1C(=O)Nc1ccc(OCCO)nc1 [Example 276, N-[6-(2-hydroxyethoxy)pyridin-3-yl]-3-methyl-5-{[6-(trifluoromethyl)pyrazin-2-yl]amino}-1,2-thiazole-4-carboxamide]	> 20 µM
Cc1nsc(Nc2cnc(C(F)(F)F)cn2)c1C(=O)Nc1ccc(OCCO)nc1 [Example 277, N-[6-(2-hydroxyethoxy)pyridin-3-yl]-3-methyl-5-{[5-(trifluoromethyl)pyrazin-2-yl]amino}-1,2-thiazole-4-carboxamide]	> 20 µM
Cc1nsc(Nc2cncc(C(F)(F)F)n2)c1C(=O)Nc1ccc(OCCCO)nc1 [Example 278, N-[6-(3-hydroxypropoxy)pyridin-3-yl]-3-methyl-5-{[6-(trifluoromethyl)pyrazin-2-yl]amino}-1,2-thiazole-4-carboxamide]	> 20 µM
Cc1nsc(Nc2cnc(C(F)(F)F)cn2)c1C(=O)Nc1ccc(OCCCO)nc1 [Example 279, N-[6-(3-hydroxypropoxy)pyridin-3-yl]-3-methyl-5-{[5-(trifluoromethyl)pyrazin-2-yl]amino}-1,2-thiazole-4-carboxamide]	> 20 µM
Cc1nsc(Nc2cncc(C(F)(F)F)n2)c1C(=O)Nc1ccc(C(=O)NC2CN(CC(F)(F)F)C2)cc1 [Example 280, 3-methyl-N-(4-{[1-(2,2,2-trifluoroethyl)azetidin-3-yl]carbamoyl}phenyl)-5-{[6-(trifluoromethyl)pyrazin-2-yl]amino}-1,2-thiazole-4-carboxamide]	> 20 µM and 11 µM
Cc1nsc(Nc2cnc3ccccc3n2)c1C(=O)Nc1cccc(NS(=O)(=O)C2CCN(CC(F)(F)F)CC2)c1 [Example 281, 3-methyl-5-(quinoxalin-2-ylamino)-N-[3-({[1-(2,2,2-trifluoroethyl)piperidin-4-yl]sulfonyl}amino)phenyl]-1,2-thiazole-4-carboxamide]	> 20 µM
Cc1nsc(Nc2cnc3ccccc3n2)c1C(=O)Nc1cccc(NS(=O)(=O)C2CCN(CC(F)F)CC2)c1 [Example 282, N-[3-({[1-(2,2-difluoroethyl)piperidin-4-yl]sulfonyl}amino)phenyl]-3-methyl-5-(quinoxalin-2-ylamino)-1,2-thiazole-4-carboxamide]	> 20 µM
Cc1nsc(Nc2cnc3ccccc3n2)c1C(=O)Nc1cccc(NS(=O)(=O)C2CCN(CCC(F)(F)F)CC2)c1 [Example 283, 3-methyl-5-(quinoxalin-2-ylamino)-N-[3-({[1-(3,3,3-trifluoropropyl)piperidin-4-yl]sulfonyl}amino)phenyl]-1,2-thiazole-4-carboxamide]	> 20 µM
Cc1nsc(Nc2cnc(C(F)(F)F)cn2)c1C(=O)Nc1cccc(NC(=O)OC(C)(C)C)c1 [Example 284, 3-tert-butyl (3-{[(3-methyl-5-{[5-(trifluoromethyl)pyrazin-2-yl]amino}-1,2-thiazol-4-yl)carbonyl]amino}phenyl)carbamate]	> 20 µM
Cc1nsc(Nc2cnc3ccccc3n2)c1C(=O)Nc1cccc(NS(=O)(=O)C2CN(CC(F)(F)F)C2)c1 [Example 285, 3-methyl-5-(quinoxalin-2-ylamino)-N-[3-({[1-(2,2,2-trifluoroethyl)azetidin-3-yl]sulfonyl}amino)phenyl]-1,2-thiazole-4-carboxamide]	> 20 µM
Cc1nsc(Nc2cnc3ccccc3n2)c1C(=O)Nc1cccc(NS(=O)(=O)C2CN(CC(F)F)C2)c1 [Example 286, N-[3-({[1-(2,2-difluoroethyl)azetidin-3-yl]sulfonyl}amino)phenyl]-3-methyl-5-(quinoxalin-2-ylamino)-1,2-thiazole-4-carboxamide]	14 µM
Cc1nsc(Nc2cnc3ccccc3n2)c1C(=O)Nc1cccc(NS(=O)(=O)C2CN(CCF)C2)c1 [Example 287, N-[3-({[1-(2-fluoroethyl)azetidin-3-yl]sulfonyl}amino)phenyl]-3-methyl-5-(quinoxalin-2-ylamino)-1,2-thiazole-4-carboxamide]	> 20 µM
Cc1nsc(Nc2cnc3ccccc3n2)c1C(=O)Nc1cccc(NS(=O)(=O)C2CN(CCC(F)(F)F)C2)c1 [Example 288, 3-methyl-5-(quinoxalin-2-ylamino)-N-[3-({[1-(3,3,3-trifluoropropyl)azetidin-3-yl]sulfonyl}amino)phenyl]-1,2-thiazole-4-carboxamide]	> 20 µM
Cc1nsc(Nc2cnc3ccccc3n2)c1C(=O)Nc1cccc(NS(=O)(=O)C2CCN(CC(F)(F)F)C2)c1 (stereo not shown) [Example 289, 3-methyl-5-(quinoxalin-2-ylamino)-N-[3-({[1-(2,2,2-trifluoroethyl)pyrrolidin-3-yl]sulfonyl}amino)phenyl]-1,2-thiazole-4-carboxamide]	> 20 µM
Cc1nsc(Nc2cnc3ccccc3n2)c1C(=O)Nc1cccc(NS(=O)(=O)C2CCN(C(=O)OC(C)(C)C)C2)c1 (stereo not shown) [Example 290, tert-butyl 3-{[3-({[3-methyl-5-(quinoxalin-2-ylamino)-1,2-thiazol-4-yl]carbonyl}amino)phenyl]sulfamoyl} pyrrolidine-1-carboxylate]	> 20 µM
